Viability and IC50 data for 21 compounds are collected here from ChEMBL document CHEMBL5528038, “Discovery of 2,3-Diaminoindole Derivatives as a Novel Class of NOD Antagonists” (J Med Chem, 2024).

pIC50: −log10 of the molar value.

The nature of series [1]: in vitro. The note with it: human, HEK-Blue hNOD1 cells.
Series [2] can be described thus: in vitro. The conditions noted are these: human, HEK-Blue hNOD2 cells.
For series [3], the target named is T1, Nucleotide-binding oligomerization domain-containing protein 1 (Homo sapiens, UniProt Q9Y239).
T1 sequence (Q9Y239 whole entry): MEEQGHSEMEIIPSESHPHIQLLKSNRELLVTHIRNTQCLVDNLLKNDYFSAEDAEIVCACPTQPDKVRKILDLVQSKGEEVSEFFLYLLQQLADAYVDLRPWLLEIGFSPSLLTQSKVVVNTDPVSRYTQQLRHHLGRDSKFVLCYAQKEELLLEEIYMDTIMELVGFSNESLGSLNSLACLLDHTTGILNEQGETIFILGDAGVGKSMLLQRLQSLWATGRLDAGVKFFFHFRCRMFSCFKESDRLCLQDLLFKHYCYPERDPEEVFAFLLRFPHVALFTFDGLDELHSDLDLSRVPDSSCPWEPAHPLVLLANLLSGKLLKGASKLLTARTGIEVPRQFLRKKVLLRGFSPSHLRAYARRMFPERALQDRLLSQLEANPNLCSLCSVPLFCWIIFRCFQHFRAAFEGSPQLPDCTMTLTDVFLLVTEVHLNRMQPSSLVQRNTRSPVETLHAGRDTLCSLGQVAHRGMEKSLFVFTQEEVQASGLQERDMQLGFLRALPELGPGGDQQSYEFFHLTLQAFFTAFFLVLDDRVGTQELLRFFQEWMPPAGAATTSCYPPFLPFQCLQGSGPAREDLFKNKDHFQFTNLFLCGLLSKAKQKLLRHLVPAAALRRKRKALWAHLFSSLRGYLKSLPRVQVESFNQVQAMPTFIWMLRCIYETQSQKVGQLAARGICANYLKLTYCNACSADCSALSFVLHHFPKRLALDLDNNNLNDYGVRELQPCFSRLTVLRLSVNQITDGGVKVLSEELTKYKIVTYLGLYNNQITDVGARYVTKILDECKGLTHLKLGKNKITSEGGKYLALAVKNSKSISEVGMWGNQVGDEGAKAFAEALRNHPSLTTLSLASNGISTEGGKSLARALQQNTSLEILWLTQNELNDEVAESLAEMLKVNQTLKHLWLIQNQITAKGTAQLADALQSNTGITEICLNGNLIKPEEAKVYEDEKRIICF
Description: Antagonist activity at human NOD1 expressed in HEK-Blue cells coexpressing NF-kappaB-inducible SEAP reporter gene assessed as inhibition of C12-iE-DAP-induced NF-kappaB transcriptional activity by measuring decrease in SEAP activity preincubated for 1 hr followed by C12-iE-DAP addition and measured after 18 hrs by spectrophotometric analysis

Series [4] deals with Nucleotide-binding oligomerization domain-containing protein 2 (Homo sapiens, UniProt Q9HC29).
Chain of Nucleotide-binding oligomerization domain-containing protein 2 (Q9HC29 whole entry, the tested form may be a part): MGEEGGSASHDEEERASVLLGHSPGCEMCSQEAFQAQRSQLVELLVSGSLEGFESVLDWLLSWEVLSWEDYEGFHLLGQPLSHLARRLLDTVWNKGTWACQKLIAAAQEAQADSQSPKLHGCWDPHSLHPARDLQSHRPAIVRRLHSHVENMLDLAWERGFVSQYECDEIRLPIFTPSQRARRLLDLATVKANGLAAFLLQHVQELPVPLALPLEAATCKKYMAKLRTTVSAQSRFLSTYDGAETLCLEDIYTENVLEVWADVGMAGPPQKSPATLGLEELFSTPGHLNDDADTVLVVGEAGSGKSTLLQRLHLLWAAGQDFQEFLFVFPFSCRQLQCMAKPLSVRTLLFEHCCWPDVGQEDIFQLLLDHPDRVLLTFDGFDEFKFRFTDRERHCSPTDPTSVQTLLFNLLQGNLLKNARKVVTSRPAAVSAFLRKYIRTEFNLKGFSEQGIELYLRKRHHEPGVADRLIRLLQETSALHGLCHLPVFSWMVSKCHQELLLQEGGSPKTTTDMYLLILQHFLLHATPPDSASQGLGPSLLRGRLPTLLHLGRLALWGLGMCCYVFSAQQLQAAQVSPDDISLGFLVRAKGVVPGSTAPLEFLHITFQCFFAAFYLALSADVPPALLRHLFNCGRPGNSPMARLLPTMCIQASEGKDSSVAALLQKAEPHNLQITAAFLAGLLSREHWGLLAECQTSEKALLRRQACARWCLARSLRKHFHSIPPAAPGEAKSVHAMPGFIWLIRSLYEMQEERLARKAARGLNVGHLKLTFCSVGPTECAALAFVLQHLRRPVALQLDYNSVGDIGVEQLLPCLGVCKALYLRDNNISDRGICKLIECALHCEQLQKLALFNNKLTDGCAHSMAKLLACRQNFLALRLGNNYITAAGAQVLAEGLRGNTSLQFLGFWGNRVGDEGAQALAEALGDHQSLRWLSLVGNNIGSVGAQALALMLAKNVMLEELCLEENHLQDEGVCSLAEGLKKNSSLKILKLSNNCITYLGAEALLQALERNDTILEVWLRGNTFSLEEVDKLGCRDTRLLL
Description: Antagonist activity at human NOD2 (unknown origin)

With `CC(C)(C)Nc1c(N2CCOCC2)c2ccccc2n1S(=O)(=O)c1ccc([N+](=O)[O-])cc1`, the viability at 18 h, 25 µM in “in vitro [1]” and in the series “in vitro [2]” was not below 80% in each case.
As to `Cc1ccc(S(=O)(=O)n2c(NC3CCCCC3)c(N3CCN(C)CC3)c3cc4ccccc4cc32)cc1`, the viability at 18 h, 25 µM in “in vitro [1]” and in “in vitro [2]” was not below 80% throughout.
Take `Cc1ccc(S(=O)(=O)n2c(NC(C)(C)C)c(N3CCN(C)CC3)c3cc4ccccc4cc32)cc1`: the viability at 18 h, 25 µM in “in vitro [1]” and in the series “in vitro [2]” was not below 80% each time.
In the case of `CCN(CC)c1c(NC(C)(C)C)n(S(=O)(=O)c2ccc(C)cc2)c2ccccc12`, the viability at 18 h, 25 µM in the series “in vitro [1]” and in the series “in vitro [2]” was not below 80% each time.
Turning to `COC(=O)CNc1c(N2CCOCC2)c2ccccc2n1S(=O)(=O)c1ccc(C)cc1`, the viability at 18 h, 25 µM in “in vitro [1]” and in the series “in vitro [2]” was not below 80% in each case.
Regarding `Cc1ccc(S(=O)(=O)n2c(NC(C)(C)C)c(N3CCOCC3)c3cc(Cl)ccc32)cc1`, the viability at 18 h, 25 µM in “in vitro [1]” and in the series “in vitro [2]” was not below 80% each time.
For `Cc1ccc(S(=O)(=O)n2c(NC3CCCCC3)c(N3CCN(C)CC3)c3ccccc32)cc1`, the pIC50 (as a rule, the negative decadic logarithm of the IC50, by convention in mol/L) in series [3] was 4.73. In addition, the viability at 18 h, 25 µM in “in vitro [1]” and in the series “in vitro [2]” was not below 80% in each case.
For the compound `COc1ccc(S(=O)(=O)n2c(NC(C)(C)C)c(N3CCOCC3)c3ccccc32)cc1`, the viability at 18 h, 25 µM in “in vitro [1]” and in the series “in vitro [2]” was not below 80% throughout.
For the compound `CCN(CC)c1c(NC(C)(C)C)n(S(=O)(=O)c2ccc(C)cc2)c2cccc(C)c12`, the viability at 18 h, 25 µM in the series “in vitro [1]” and in “in vitro [2]” was not below 80% in each case.
`Cc1ccc(S(=O)(=O)n2c(NCc3ccccc3)c(N3CCN(C)CC3)c3ccccc32)cc1`: the viability at 18 h, 25 µM in “in vitro [1]” and in the series “in vitro [2]” was not below 80% in each case.
As for `Cc1ccc(S(=O)(=O)n2c(NC(C)(C)C)c(N3CCOCC3)c3ccccc32)cc1`, the viability at 18 h, 25 µM in the series “in vitro [1]” and in the series “in vitro [2]” was not below 80% throughout.
In the case of `Cc1ccc(S(=O)(=O)n2c(NC3CC3)c(N3CCOCC3)c3cc(Cl)ccc32)cc1`, the viability at 18 h, 25 µM in “in vitro [1]” and in the series “in vitro [2]” was not below 80% each time.
For the compound `Cc1ccc(S(=O)(=O)n2c(NC(C)(C)C)c(N3CCCCC3)c3ccccc32)cc1`, the viability at 18 h, 25 µM in “in vitro [1]” and in “in vitro [2]” was not below 80% throughout.
Take `Cc1ccc(S(=O)(=O)n2c(NCc3ccccc3)c(N3CCOCC3)c3ccccc32)cc1`: the viability at 18 h, 25 µM in the series “in vitro [1]” and in the series “in vitro [2]” was not below 80% each time.
Consider `C#CCN(C)c1c(Nc2ccc3ccccc3c2)n(S(=O)(=O)c2ccc(C)cc2)c2cc(Cl)ccc12`, for which the viability at 18 h, 25 µM in “in vitro [1]” and in the series “in vitro [2]” was not below 80% each time.
`O=[N+]([O-])c1ccc(S(=O)(=O)n2c(NCc3ccccc3)c(N3CCOCC3)c3ccccc32)cc1`: the viability at 18 h, 25 µM in the series “in vitro [1]” and in “in vitro [2]” was not below 80% each time.
For the compound `CCCCCn1c(SCCc2ccccc2)nc2[nH]c(=O)[nH]c(=O)c21`, the pIC50 in series [4] was less than 4.70.
With `Cc1ccc(S(=O)(=O)n2c(NCc3ccccc3)c(N3CCN(C)CC3)c3cc4ccccc4cc32)cc1`, in series [3], the negative logarithm of the IC50 (pIC50) was 4.68. Besides, the viability at 18 h, 25 µM in the series “in vitro [1]” and in the series “in vitro [2]” was not below 80% each time.
Take `CCCCCNc1c(N(CC)CC)c2ccccc2n1S(=O)(=O)c1ccc(C)cc1`: the viability at 18 h, 25 µM in “in vitro [1]” and in the series “in vitro [2]” was not below 80% in each case.
As to `CCCCCNc1c(N2CCOCC2)c2ccccc2n1S(=O)(=O)c1ccc(C)cc1`, the viability at 18 h, 25 µM in “in vitro [1]” and in the series “in vitro [2]” was not below 80% throughout.
For `CCCCCNc1c(N2CCOCC2)c2ccccc2n1S(=O)(=O)c1ccc([N+](=O)[O-])cc1`, the pIC50 in series [3] is 4.58. For the same compound, the viability at 18 h, 25 µM in “in vitro [1]” and in “in vitro [2]” was not below 80% in each case.
